{"source": "patent US20250127857A1", "about": "“A COMPOSITION COMPRISING IL-36 AND/OR IL-18 FOR USE IN TREATING OCULAR DISORDERS” (THE PROVOST, FELLOWS, FOUNDATION SCHOLARS, & THE OTHER …, priority 2021, published 2025)", "key": {"[1]": {"tested_on": "primary human foetal RPE (hfRPE) cells", "experiment": "Scratch assay in hfRPE cultures", "format": "cell-based", "conditions": "IL-18 10-1000 ng/ml, up to 18 hours", "procedure": "FIG. 19 illustrates IL-18 induces fibroblast-like cells to migrate to close a wound created in human Retinal Pigment Epithelium monolayer in vitro, wherein primary human foetal RPE (hfRPE) cells were treated with control medium (0 ng/ml) or increasing doses of IL-18 (10-1000 ng/ml) immediately after making a scratch through the centre of the well, wherein microscopy images were acquired at the same location at baseline (0 hours) and then every 2 hours until 18 hours, representative images for each treatment group are shown, wherein cells were stained with DAPI to show the nuclei, and phalloidin to show F-actin, wherein Brightfield images (phase) are also shown;"}, "[2]": {"tested_on": "VEGF", "experiment": "VEGF in HOCFs treated with IL-18", "format": "cell-based, human", "conditions": "IL-18 100 ng/ml over 24 h", "procedure": "FIG. 20 illustrates IL-18 activates human ocular choroidal fibroblasts and inhibits VEGF secretion, wherein (A) is human ocular choroidal fibroblast (HOCFs) treated with IL-18 at increasing doses for 8 h, wherein cells were fixed and stained with antibody targeting intermediate filament vimentin (red), Hoechst (blue) and phalloidin (green); (B) is HOCFs treated with IL-18 (100 ng/ml) over 60 mins and immunoblotted for phospho-ERK and phospo-p65 with B-actin and GAPDH as controls; (C) is HOCFs treated with IL-18 (100 ng/ml) over 24 h as indicated, wherein cells were analysed for VEGF expression by qPCR (D) is HOCFs treated with 10, 100 or 1000 ng/ml of IL-18 as indicated over 48 h and cell death was analysed by LDH assay;"}, "[3]": {"tested_on": "bone marrow derived MSCs", "experiment": "Bone marrow derived mesenchymal stem cell activation (confocal microscopy)", "format": "cell-based, mouse", "conditions": "IL-18 250 ng/ml, 8 h", "procedure": "FIG. 21 illustrates IL-18 activates bone marrow derived mesenchymal stem cells, wherein bone marrow derived MSC's were treated with IL-18 at 250 ng/ml for 8 h and images using confocal microscopy, wherein cells were stained with phalloidin for F-actin, vimentin, smooth muscle actin (SMA) and collagen 1;\nThe femurs from mice were isolated and, using a 20 ml syringe, the bones were flushed with DMEM into a cell culture dish. The flushings were centrifuged for 5 minutes at 1000 rpm. The supernatant was poured off and resuspended in 1 ml of 15% FBS and aMEM media, and filtered through a 70 um nylon mesh into a 50 ml captube. A further 5 ml of 15% FBS and aMEM were added through the mesh tube into the same 50 ml cap tube, and plated in a TC coated dish and cultured in an incubator for 5 days. On Day 5, the dish was washed with PBS 3 times (using PBS with no magnesium or calcium),trypsinized and the trypsin pipetted onto the plate to break up the colonies. 10mis of 10% FBS and DMEM were added and the cells collected in a 50 ml cap tube and this process was repeated once more, centrifuged for 5 mins at 1000 rpm, supernatant poured off, cells resuspended in 1 ml of DMEM and 20% FBS, and plated in a T75 and fed every second day until cells were confluent. When cells were confluent, they were split 1 in 3."}}}
{"substance": "IL-18: recombinant human IL-18 (SB-485232; GSK)", "values": [{"measurement": "cell migration into wound in hfRPE monolayer", "setting": "[1]", "value": "appearance of fibroblast-like cells that migrated across the wound"}, {"measurement": "baseline secretion of VEGF from HOCFs", "setting": "[2]", "value": "strongly reduces the baseline secretion of VEGF"}, {"measurement": "appearance of vimentin and SMA in MSCs", "setting": "[3]", "value": "strong effect on the appearance of vimentin and SMA"}, {"measurement": "collagen in MSCs", "setting": "[3]", "value": "increased collagen in MSCs"}]}
